Measurements reported in patent publication US20230131899A1, “INHIBITORS OF MICROBIALLY INDUCED AMYLOID” (Axial Therapeutics, Inc., priority 2020, published 2023).
Where two headings read alike, the source gives them in different places.

Molecular target: T1, E. coli CsgA (Escherichia coli, UniProt P28307)
T1 construct: made in house; host or cells: E. coli NEB 3016 slyD::kan, pET11d
Test: In vitro ThioflavinT assay of CsgA aggregation (CsgA ThT Assay)
Assay type: biochemical
Details: for remaining activity at 25 µM / CsgA ThT Assay (10 μM CsgA) % Control AUC at 1005 minutes, 25 μM (activity range) / CsgA ThT Assay (10 μM CsgA) % Control AUC at 1005 minutes, 25 μM: compound 25 μM; for remaining activity at 100 µM / CsgA ThT Assay (10 μM CsgA) % Control AUC at 1005 minutes, 100 μM (activity range) / CsgA ThT Assay (10 μM CsgA) % Control AUC at 1005 minutes, 100 μM: compound 100 μM; for CsgA ThT Assay (10 μM CsgA) % Control AUC at 1005 minutes, 25 μM / CsgA ThT Assay (10 μM CsgA) % Control AUC at 1005 minutes, 100 μM: mean AUC as % of DMSO control
Summary of the method: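 Purified C-terminal His-tagged CsgA, monomerised by desalting and 30-kDa filtration, at 2-20 μM with 20-40 μM ThT in 50 mM potassium phosphate pH 7.3, 1% DMSO, compounds 3.125-200 uM; room temperature, fluorescence (ex 438/em 495 nm) read every 15 min. Background-subtracted signal expressed as percent inhibition versus vehicle at 6-6.5 or 8-9 h, or as percent control AUC.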

[1] = read-out: CsgA ThT Assay (10 μM CsgA) % Control AUC at 1005 minutes, 25 μM (activity range), CsgA 10 μM, black plates, 1005 minutes, class symbol
[2] = read-out: CsgA ThT Assay (10 μM CsgA) % Control AUC at 1005 minutes, 25 μM, mean AUC as % of DMSO control, CsgA 10 μM, black plates, 1005 minutes
[3] = read-out: CsgA ThT Assay (10 μM CsgA) % Control AUC at 1005 minutes, 100 μM (activity range), CsgA 10 μM, black plates, 1005 minutes, class symbol
[4] = read-out: CsgA ThT Assay (10 μM CsgA) % Control AUC at 1005 minutes, 100 μM, mean AUC as % of DMSO control, CsgA 10 μM, black plates, 1005 minutes
[5] = read-out: CsgA ThT Assay (2 μM CsgA) % Control Bmax 25 μM, activity range, class symbol, CsgA 2 μM, white plates
[6] = read-out: CsgA ThT Assay (2 μM CsgA) % Control Bmax 25 μM, mean Bmax as percentage of DMSO control, CsgA 2 μM, white plates
[7] = read-out: CsgA ThT Assay (2 μM CsgA) % Control Bmax 100 μM, activity range, class symbol, CsgA 2 μM, white plates
[8] = read-out: CsgA ThT Assay (2 μM CsgA) % Control Bmax 100 μM, mean Bmax as percentage of DMSO control, CsgA 2 μM, white plates
[9] = CsgA 10 μM, black plates, 1005 minutes, class symbol
[10] = CsgA 10 μM, black plates, 1005 minutes

T1 sequence (P28307 23-151): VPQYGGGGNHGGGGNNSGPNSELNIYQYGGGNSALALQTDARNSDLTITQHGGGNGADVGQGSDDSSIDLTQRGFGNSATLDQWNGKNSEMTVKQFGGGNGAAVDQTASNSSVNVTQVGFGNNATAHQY

SMILES | remaining activity at 25 µM [1] | remaining activity at 25 µM [2] | remaining activity at 100 µM [3] | remaining activity at 100 µM [4] | other results
O=C(O)C1CN(C[C@@H](O)CO)S(=O)(=O)c2c(-c3cccc(C(F)(F)F)c3)c(Cc3cccc4ccccc34)cc(=O)n21 (mixture of isomers) [Compound 065b, 2-((R)-2,3-dihydroxypropyl)-8-(naphthalen-1-ylmethyl)-6-oxo-9-(3-(trifluoromethyl)phenyl)-3,4-dihydro-2H,6H-pyrido[1,2-e][1,2,5]thiadiazine-4-carboxylic acid 1,1-dioxide] | > 60% | 66% | 11 to 31% | 16% | –
O=C(O)C1CN(C[C@H](O)[C@@H](O)[C@H](O)[C@H](O)CO)S(=O)(=O)c2c(-c3cccc(C(F)(F)F)c3)c(Cc3cccc4ccccc34)cc(=O)n21 (mixture of isomers) [Compound 066, 8-(naphthalen-1-ylmethyl)-6-oxo-2-((2S,3R,4R,5R)-2,3,4,5,6-pentahydroxyhexyl)-9-(3-(trifluoromethyl)phenyl)-3,4-dihydro-2H,6H-pyrido[1,2-e][1,2,5]thiadiazine-4-carboxylic acid 1,1-dioxide] | > 60% | 88% | 11 to 31% | 29% | –
O=C(O)[C@@H]1CN(Cc2ccccc2)c2c(-c3cccc(C(F)(F)F)c3)c(Cc3cccc4ccccc34)c(Cl)c(=O)n21 (single isomer, unassigned) [Compound 004a] | – | – | – | – | remaining activity at 25 µM [5]: > 60%; remaining activity at 25 µM [6]: 64%; remaining activity at 100 µM [7]: 11 to 31%; remaining activity at 100 µM [8]: 24%
O=C(O)[C@H]1CN(Cc2ccccc2)c2c(-c3cccc(C(F)(F)F)c3)c(Cc3cccc4ccccc34)c(Cl)c(=O)n21 (single isomer, unassigned) [Compound 004b] | – | – | – | – | remaining activity at 25 µM [5]: 31 to 60%; remaining activity at 25 µM [6]: 54%; remaining activity at 100 µM [7]: 31 to 60%; remaining activity at 100 µM [8]: 40%
CCCN1CC(C(=O)O)n2c(c(-c3cccc(C(F)(F)F)c3)c(Cc3cccc4ccccc34)cc2=O)S1(=O)=O (single isomer, unassigned) [Compound 016b, 8-(naphthalen-1-ylmethyl)-6-oxo-2-propyl-9-(3-(trifluoromethyl)phenyl)-3,4-dihydro-2H,6H-pyrido[1,2-e][1,2,5]thiadiazine-4-carboxylic acid 1,1-dioxide] | – | – | – | – | CsgA ThT Assay (10 μM CsgA) % Control AUC at 1005 minutes, 25 μM (activity range) [9]: (++) (% control AUC of 31 to 60%); CsgA ThT Assay (10 μM CsgA) % Control AUC at 1005 minutes, 100 μM (activity range) [9]: (+++) (% control AUC of 11 to 31%); CsgA ThT Assay (10 μM CsgA) % Control AUC at 1005 minutes, 25 μM [10]: 33%; CsgA ThT Assay (10 μM CsgA) % Control AUC at 1005 minutes, 100 μM [10]: 23%
Nc1c(Cc2cccc3ccccc23)c(-c2cccc(C(F)(F)F)c2)c2n(c1=O)C(C(=O)O)CS2 (single isomer, unassigned) [Compound 020b, 6-amino-7-(naphthalen-1-ylmethyl)-5-oxo-8-(3-(trifluoromethyl)phenyl)-2,3-dihydro-5H-thiazolo[3,2-a]pyridine-3-carboxylic acid] | – | – | – | – | CsgA ThT Assay (10 μM CsgA) % Control AUC at 1005 minutes, 25 μM (activity range) [9]: (+++) (% control AUC of 11 to 31%); CsgA ThT Assay (10 μM CsgA) % Control AUC at 1005 minutes, 100 μM (activity range) [9]: (+++) (% control AUC of 11 to 31%); CsgA ThT Assay (10 μM CsgA) % Control AUC at 1005 minutes, 25 μM [10]: 26%; CsgA ThT Assay (10 μM CsgA) % Control AUC at 1005 minutes, 100 μM [10]: 16%
CCCCCN1CC(C(=O)O)n2c(c(-c3cccc(C(F)(F)F)c3)c(Cc3cccc4ccccc34)cc2=O)S1(=O)=O (single isomer, unassigned) [Compound 025a, 8-(naphthalen-1-ylmethyl)-6-oxo-2-pentyl-9-(3-(trifluoromethyl)phenyl)-3,4-dihydro-2H,6H-pyrido[1,2-e][1,2,5]thiadiazine-4-carboxylic acid 1,1-dioxide] | 31 to 60% | 38% | > 60% | – | CsgA ThT Assay (10 μM CsgA) % Control AUC at 1005 minutes, 100 μM [10]: 143%
O=C(O)C1CN(Cc2ccccc2)c2c(-c3cccc(C(F)(F)F)c3)c(Cc3cccc4ccccc34)c(Br)c(=O)n21 (stereo not shown) [Compound 003, 1-benzyl-6-bromo-7-(naphthalen-1-ylmethyl)-5-oxo-8-(3-(trifluoromethyl)phenyl)-1,2,3,5-tetrahydroimidazo[1,2-a]pyridine-3-carboxylic acid] | – | – | – | – | remaining activity at 25 µM [5]: 31 to 60%; remaining activity at 25 µM [6]: 54%; remaining activity at 100 µM [7]: 11 to 31%; remaining activity at 100 µM [8]: 16%
O=C(O)C1CN(Cc2ccccc2)c2c(-c3cccc(C(F)(F)F)c3)c(Cc3cccc4ccccc34)c(Cl)c(=O)n21 (stereo not shown) [Compound 004, 1-benzyl-6-chloro-7-(naphthalen-1-ylmethyl)-5-oxo-8-(3-(trifluoromethyl)phenyl)-1,2,3,5-tetrahydroimidazo[1,2-a]pyridine-3-carboxylic acid] | – | – | – | – | remaining activity at 25 µM [5]: 31 to 60%; remaining activity at 25 µM [6]: 57%; remaining activity at 100 µM [7]: 11 to 31%; remaining activity at 100 µM [8]: 26%
CNC(=O)C1CN(C)S(=O)(=O)c2c(-c3cccc(C(F)(F)F)c3)c(Cc3cccc4ccccc34)cc(=O)n21 (stereo not shown) [Compound 031, N,2-dimethyl-8-(naphthalen-1-ylmethyl)-6-oxo-9-(3-(trifluoromethyl)phenyl)-3,4-dihydro-2H,6H-pyrido[1,2-e][1,2,5]thiadiazine-4-carboxamide 1,1-dioxide] | > 60% | 100% | > 60% | 99% | –
CN(C)C(=O)C1CN(C)S(=O)(=O)c2c(-c3cccc(C(F)(F)F)c3)c(Cc3cccc4ccccc34)cc(=O)n21 (stereo not shown) [Compound 032, N,N-2-trimethyl-8-(naphthalen-1-ylmethyl)-6-oxo-9-(3-(trifluoromethyl)phenyl)-3,4-dihydro-2H,6H-pyrido[1,2-e][1,2,5]thiadiazine-4-carboxamide 1,1-dioxide] | > 60% | 92% | – | – | –
Cn1c(=O)c2c(ncn2CCCCN2CC(C(=O)O)n3c(c(-c4cccc(C(F)(F)F)c4)c(Cc4cccc5ccccc45)cc3=O)S2(=O)=O)n(C)c1=O (stereo not shown) [Compound 033, 2-(4-(1,3-dimethyl-2,6-dioxo-1,2,3,6-tetrahydro-7H-purin-7-yl)butyl)-8-(naphthalen-1-ylmethyl)-6-oxo-9-(3-(trifluoromethyl)phenyl)-3,4-dihydro-2H,6H-pyrido[1,2-e][1,2,5]thiadiazine-4-carboxylic acid 1,1-dioxide] | > 60% | 68% | > 60% | 79% | –
Cn1c(=O)c2c(ncn2CCCCCN2CC(C(=O)O)n3c(c(-c4cccc(C(F)(F)F)c4)c(Cc4cccc5ccccc45)cc3=O)S2(=O)=O)n(C)c1=O (stereo not shown) [Compound 034, 2-(5-(1,3-dimethyl-2,6-dioxo-1,2,3,6-tetrahydro-7H-purin-7-yl)pentyl)-8-(naphthalen-1-ylmethyl)-6-oxo-9-(3-(trifluoromethyl)phenyl)-3,4-dihydro-2H,6H-pyrido[1,2-e][1,2,5]thiadiazine-4-carboxylic acid 1,1-dioxide] | > 60% | 62% | > 60% | 95% | –
Cn1c(=O)c2c(ncn2CCCCCCCN2CC(C(=O)O)n3c(c(-c4cccc(C(F)(F)F)c4)c(Cc4cccc5ccccc45)cc3=O)S2(=O)=O)n(C)c1=O (stereo not shown) [Compound 036] | > 60% | 65% | – | – | –
CNC(=O)CCCN1CC(C(=O)O)n2c(c(-c3cccc(C(F)(F)F)c3)c(Cc3cccc4ccccc34)cc2=O)S1(=O)=O (stereo not shown) [Compound 037, 2-(4-(methylamino)-4-oxobutyl)-8-(naphthalen-1-ylmethyl)-6-oxo-9-(3-(trifluoromethyl)phenyl)-3,4-dihydro-2H,6H-pyrido[1,2-e][1,2,5]thiadiazine-4-carboxylic acid 1,1-dioxide] | > 60% | 71% | 31 to 60% | 53% | –
CNC(=O)CCCCN1CC(C(=O)O)n2c(c(-c3cccc(C(F)(F)F)c3)c(Cc3cccc4ccccc34)cc2=O)S1(=O)=O (stereo not shown) [Compound 038, 2-(5-(methylamino)-5-oxopentyl)-8-(naphthalen-1-ylmethyl)-6-oxo-9-(3-(trifluoromethyl)phenyl)-3,4-dihydro-2H,6H-pyrido[1,2-e][1,2,5]thiadiazine-4-carboxylic acid 1,1-dioxide] | > 60% | 86% | 11 to 31% | 25% | –
Nc1c(Cc2ccc(N)c3ccccc23)c(-c2cccc(C(F)(F)F)c2)c2n(c1=O)C(C(=O)O)CNS2(=O)=O (stereo not shown) [Compound 041] | > 60% | 75% | 11 to 31% | 27% | –
